In the NIST ThermoML archive (doi:10.1016/j.jct.2013.04.015):
Numbers after ± are expanded uncertainties.

Key:
[1] = xn = mol fraction of the nth substance listed; conditions: for surface tension liquid-gas: Wilhelmy plate method; for mass density: 101 kPa, Liquid, Vibrating tube method
[2] = for surface tension liquid-gas: Wilhelmy plate method; for mass density: 101 kPa, Liquid, Vibrating tube method

CCCCn1cc[n+](C)c1.C[C@H](O)C(=O)[O-] [1-butyl-3-methylimidazolium L-lactate] + O
[1]
Conditions | mass density, 298.15 K [kg/m3] | mass density, 308.15 K [kg/m3] | mass density, 318.15 K [kg/m3] | surface tension liquid-gas, 298.15 K [mN/m] | surface tension liquid-gas, 308.15 K [mN/m] | surface tension liquid-gas, 318.15 K [mN/m]
x1 = 0.0097 | – | – | – | 53.67 ± 0.63 | 51.15 ± 0.6 | 49.79 ± 0.6
x1 = 0.0303 | – | – | – | 47.86 ± 0.56 | 46.42 ± 0.55 | 45.58 ± 0.54
x1 = 0.0401 | – | – | – | 46.95 ± 0.55 | 46.08 ± 0.54 | 45.57 ± 0.54
x1 = 0.0602 | – | – | – | 46.15 ± 0.54 | 45.87 ± 0.54 | 45.55 ± 0.53
x1 = 0.0801 | – | – | – | 46.98 ± 0.54 | 46.54 ± 0.54 | 46.18 ± 0.54
x1 = 0.1 | – | – | – | 46.96 ± 0.54 | 46.83 ± 0.54 | 46.15 ± 0.53
x1 = 0.1001 | 1042.3 ± 0.9 | 1039.4 ± 0.9 | 1036.4 ± 0.9 | – | – | –
x1 = 0.2001 | 1061.4 ± 0.8 | 1058.3 ± 0.8 | 1055 ± 0.8 | 46.03 ± 0.51 | 44.94 ± 0.5 | 44.2 ± 0.5
x1 = 0.2999 | 1075 ± 0.8 | 1071 ± 0.8 | 1066.6 ± 0.8 | – | – | –
x1 = 0.3003 | – | – | – | 44.61 ± 0.48 | 43.59 ± 0.48 | 42.86 ± 0.47
x1 = 0.3985 | 1083.6 ± 0.7 | 1079.1 ± 0.7 | 1074.1 ± 0.7 | – | – | –
x1 = 0.3997 | – | – | – | 44.08 ± 0.46 | 43.16 ± 0.46 | 42.44 ± 0.45
x1 = 0.4994 | – | – | – | 43.46 ± 0.44 | 43.07 ± 0.44 | 42.27 ± 0.44
x1 = 0.5023 | 1090.3 ± 0.7 | 1085.4 ± 0.7 | 1080.2 ± 0.7 | – | – | –
x1 = 0.5989 | – | – | – | 43.47 ± 0.43 | 42.87 ± 0.42 | 42.11 ± 0.42
x1 = 0.6002 | 1095.7 ± 0.6 | 1090.2 ± 0.6 | 1084.3 ± 0.6 | – | – | –
x1 = 0.6982 | – | – | – | 43.41 ± 0.41 | 42.62 ± 0.41 | 42.02 ± 0.41
x1 = 0.6986 | 1099.8 ± 0.6 | 1093.5 ± 0.6 | 1087.4 ± 0.6 | – | – | –
x1 = 0.8 | 1103.3 ± 0.6 | 1096.6 ± 0.6 | 1090.3 ± 0.5 | – | – | –
x1 = 0.8017 | – | – | – | 43.35 ± 0.4 | 42.54 ± 0.39 | 42 ± 0.39
x1 = 0.8965 | – | – | – | 43.2 ± 0.38 | 42.48 ± 0.38 | 41.82 ± 0.38
x1 = 0.9001 | 1107.2 ± 0.5 | 1100.3 ± 0.5 | 1093.8 ± 0.5 | – | – | –
x1 = 1 | 1111.2 ± 0.5 | 1104.2 ± 0.5 | 1097.7 ± 0.5 | 42.92 ± 0.37 | 42.37 ± 0.37 | 42.01 ± 0.37

CCCCO [butan-1-ol] + CCCCn1cc[n+](C)c1.C[C@H](O)C(=O)[O-]
[1], x2 = 0
Conditions | mass density [kg/m3] | surface tension liquid-gas [mN/m]
298.15 K | 805.7 ± 0.4 | 23.89 ± 0.3
308.15 K | 798 ± 0.4 | 23.46 ± 0.3
318.15 K | 790.1 ± 0.4 | 22.62 ± 0.3

CCO [ethanol] + CCCCn1cc[n+](C)c1.C[C@H](O)C(=O)[O-]
[1], x2 = 0
Conditions | mass density [kg/m3] | surface tension liquid-gas [mN/m]
298.15 K | 784.7 ± 0.4 | 22.11 ± 0.31
308.15 K | 776.2 ± 0.4 | 21.13 ± 0.3
318.15 K | 767 ± 0.4 | 20.48 ± 0.3

CCCCO [butan-1-ol]
[2]
Conditions | mass density [kg/m3] | surface tension liquid-gas [mN/m]
298.15 K | 805.7 ± 0.4 | 23.89 ± 0.3
308.15 K | 798 ± 0.4 | 23.46 ± 0.3
318.15 K | 790.1 ± 0.4 | 22.62 ± 0.3

O [water]
[2]
Conditions | mass density [kg/m3] | surface tension liquid-gas [mN/m]
298.15 K | – | 71.85 ± 0.78
308.15 K | 994.1 ± 0.9 | 70.48 ± 0.77
318.15 K | – | 68.89 ± 0.75

O [water] + CCCCn1cc[n+](C)c1.C[C@H](O)C(=O)[O-]
[1], x2 = 0
Conditions | mass density [kg/m3] | surface tension liquid-gas [mN/m]
298.15 K | – | 71.85 ± 0.78
308.15 K | 994.1 ± 0.9 | 70.48 ± 0.77
318.15 K | – | 68.89 ± 0.75

CCCCn1cc[n+](C)c1.C[C@H](O)C(=O)[O-] [1-butyl-3-methylimidazolium L-lactate]
[2]
Conditions | mass density [kg/m3] | surface tension liquid-gas [mN/m]
293.15 K | 1115.3 ± 0.5 | 43.14 ± 0.37
298.15 K | 1111.2 ± 0.5 | 42.92 ± 0.37
303.15 K | 1107.5 ± 0.5 | 42.79 ± 0.37
308.15 K | 1104.2 ± 0.5 | 42.37 ± 0.37
313.15 K | 1100.5 ± 0.5 | 42.19 ± 0.37
318.15 K | 1097.7 ± 0.5 | 42.01 ± 0.37
323.15 K | 1094.1 ± 0.5 | 41.64 ± 0.37
333.15 K | 1086.1 ± 0.5 | 41.04 ± 0.36
343.15 K | 1079.8 ± 0.5 | 40.56 ± 0.36

CCCCn1cc[n+](C)c1.C[C@H](O)C(=O)[O-] [1-butyl-3-methylimidazolium L-lactate] + CCCCO
[1]
Conditions | mass density [kg/m3] | surface tension liquid-gas [mN/m]
298.15 K, x1 = 0.01 | – | 24.18 ± 0.3
298.15 K, x1 = 0.0297 | – | 24.53 ± 0.3
298.15 K, x1 = 0.0482 | – | 24.7 ± 0.3
298.15 K, x1 = 0.0601 | – | 24.83 ± 0.3
298.15 K, x1 = 0.0888 | – | 25.1 ± 0.3
298.15 K, x1 = 0.0999 | 875.7 ± 0.4 | –
298.15 K, x1 = 0.1001 | – | 25.17 ± 0.3
298.15 K, x1 = 0.1996 | 927.3 ± 0.4 | 26.2 ± 0.3
298.15 K, x1 = 0.3016 | – | 27.25 ± 0.3
298.15 K, x1 = 0.303 | 968.1 ± 0.4 | –
298.15 K, x1 = 0.3998 | 997.8 ± 0.4 | –
298.15 K, x1 = 0.4004 | – | 28.42 ± 0.31
298.15 K, x1 = 0.4997 | – | 29.67 ± 0.31
298.15 K, x1 = 0.5 | 1024.2 ± 0.4 | –
298.15 K, x1 = 0.5889 | – | 31.11 ± 0.32
298.15 K, x1 = 0.6002 | 1044.6 ± 0.4 | –
298.15 K, x1 = 0.6979 | – | 32.64 ± 0.32
298.15 K, x1 = 0.7001 | 1060.8 ± 0.4 | –
298.15 K, x1 = 0.8 | 1076.4 ± 0.4 | –
298.15 K, x1 = 0.8012 | – | 34.73 ± 0.33
298.15 K, x1 = 0.8747 | – | 36.6 ± 0.34
298.15 K, x1 = 0.8999 | 1091.8 ± 0.5 | –
298.15 K, x1 = 1 | 1111.2 ± 0.5 | 42.92 ± 0.37
308.15 K, x1 = 0.0101 | – | 23.63 ± 0.3
308.15 K, x1 = 0.0295 | – | 23.87 ± 0.3
308.15 K, x1 = 0.0495 | – | 24.18 ± 0.3
308.15 K, x1 = 0.0604 | – | 24.22 ± 0.3
308.15 K, x1 = 0.0884 | – | 24.59 ± 0.3
308.15 K, x1 = 0.0999 | 868.3 ± 0.4 | 24.67 ± 0.3
308.15 K, x1 = 0.1996 | 920.3 ± 0.4 | –
308.15 K, x1 = 0.1999 | – | 25.68 ± 0.3
308.15 K, x1 = 0.3008 | – | 26.81 ± 0.3
308.15 K, x1 = 0.303 | 960.8 ± 0.4 | –
308.15 K, x1 = 0.3994 | – | 28.18 ± 0.31
308.15 K, x1 = 0.3998 | 990.5 ± 0.4 | –
308.15 K, x1 = 0.4989 | – | 29.41 ± 0.31
308.15 K, x1 = 0.5 | 1017.2 ± 0.4 | –
308.15 K, x1 = 0.5877 | – | 30.83 ± 0.32
308.15 K, x1 = 0.6002 | 1037.4 ± 0.4 | –
308.15 K, x1 = 0.695 | – | 32.5 ± 0.32
308.15 K, x1 = 0.7001 | 1053.9 ± 0.4 | –
308.15 K, x1 = 0.7981 | – | 34.33 ± 0.33
308.15 K, x1 = 0.8 | 1069 ± 0.4 | –
308.15 K, x1 = 0.8807 | – | 36.48 ± 0.34
308.15 K, x1 = 0.8999 | 1084.2 ± 0.5 | –
308.15 K, x1 = 1 | 1104.2 ± 0.5 | 42.37 ± 0.37
318.15 K, x1 = 0.0101 | – | 23.08 ± 0.3
318.15 K, x1 = 0.0296 | – | 23.25 ± 0.3
318.15 K, x1 = 0.0485 | – | 23.59 ± 0.3
318.15 K, x1 = 0.061 | – | 23.71 ± 0.3
318.15 K, x1 = 0.0903 | – | 23.93 ± 0.3
318.15 K, x1 = 0.0999 | 859.6 ± 0.4 | –
318.15 K, x1 = 0.1004 | – | 24.17 ± 0.3
318.15 K, x1 = 0.1996 | 913 ± 0.4 | –
318.15 K, x1 = 0.2004 | – | 25.18 ± 0.3
318.15 K, x1 = 0.3011 | – | 26.53 ± 0.3
318.15 K, x1 = 0.303 | 953.9 ± 0.4 | –
318.15 K, x1 = 0.3986 | – | 28 ± 0.31
318.15 K, x1 = 0.3998 | 983.4 ± 0.4 | –
318.15 K, x1 = 0.4989 | – | 29.33 ± 0.31
318.15 K, x1 = 0.5 | 1010.1 ± 0.4 | –
318.15 K, x1 = 0.59 | – | 30.68 ± 0.32
318.15 K, x1 = 0.6002 | 1030.9 ± 0.4 | –
318.15 K, x1 = 0.688 | – | 32.24 ± 0.32
318.15 K, x1 = 0.7001 | 1047.5 ± 0.4 | –
318.15 K, x1 = 0.7993 | – | 34.23 ± 0.33
318.15 K, x1 = 0.8 | 1062 ± 0.4 | –
318.15 K, x1 = 0.8735 | – | 36.03 ± 0.34
318.15 K, x1 = 0.8999 | 1077.3 ± 0.5 | –
318.15 K, x1 = 1 | 1097.7 ± 0.5 | 42.01 ± 0.37
